Drawing on patent US12336981B2, “Compounds and compositions for the inhibition of NAMPT” (Valo Health, Inc., priority 2010, dated 2025), this text covers IC50 for 46 compounds.

Experiment [1] has as its target T1, NAMPT (Homo sapiens, UniProt P43490).
T1 construct: His tag; host or cells: E. coli
Nature of the experiment: Biochemical inhibition assay: NAMPT enzymatic reaction, NMN quantified by mass spectrometry. The following applies: NAMPT enzymatic assay; read-out: Biochem IC50. Here is the method: Biochemical Inhibition Assay
NAMPT Protein Purification
Recombinant His-tagged NAMPT was produced in E. coli cells, purified over a Ni column, and further purified over a size-exclusion column by XTAL Biostructures.
The NAMPT Enzymatic Reaction
The NAMPT enzymatic reactions were carried out in Buffer A (50 mM Hepes pH 7.5, 50 mM NaCl, 5 mM MgCl2, and 1 mM THP) in 96-well V-bottom plates. The compound titrations were performed in a separate dilution plate by serially diluting the compounds in DMSO to make a 100× stock. […] The compound and enzyme mix was incubated for 15 minutes at room temperature, then 10 μL of 10× substrate and co-factors in Buffer A were added to the test well to make a final concentration of 1 μM NAM, 100 μM 5-Phospho-D-ribose 1-diphosphate (PRPP), and 2.5 mM Adenosine 5′-triphosphate (ATP). The reaction was allowed to proceed for 30 minutes at room temperature, then was quenched with the addition of 11 μL of a solution of formic acid and L-Cystathionine to make a final concentration of 1% formic acid and 10 μM L-Cystathionine. Background and signal strength was determined by addition (or non-addition) of a serial dilution of NMN to a pre-quenched enzyme and cofactor mix.
A mass spectrometry-based assay was used to measure the NAMPT reaction product (NMN) and the internal control (L-Cystathionine). NMN and L-Cystathionine were detected using the services of Biocius Lifesciences with the RapidFire system. In short, the NMN and L-Cystathionine are bound to a graphitic carbon cartridge in 0.1% formic acid, eluted in 30% acetonitrile buffer, and injected into a Sciex 4000 mass spectrometer. The components of the sample were ionized with electrospray ionization and the positive ions were detected. […] The fragments are quantified and the analyzed by the following method.
First the NMN signal is normalized to the L-Cystathionine signal by dividing the NMN signal by the L-Cystathionine signal for each well. The signal from the background wells are averaged and subtracted from the test plates. […] IC50s are Determined Using Excel and this Formula.

Experiment [2] has as its system A2780 cells. Nature of the experiment: In-vitro cell proliferation assay (SRB), A2780 cells. The format is cell-based. The following applies: Homo sapiens, A2780, 72 h, A2780 cells, 72 hours, SRB; read-out: A2780 IC50. Here is the method: In-Vitro Cell Proliferation Assay
After overnight incubation at 37° C. and 5% CO2, the compound titrations were performed in a separate dilution plate by serially diluting the compounds in DMSO to make a 1000× stock. The compounds were then further diluted to 10× final concentration in culture media, whereupon 20 μL of each dilution was added to the plated cells with controls (e.g. DMSO and blank) to make a final volume of 200 μL. The final DMSO concentration in each well was 0.1%. The plates were then incubated for 72 hours at 37° C. in a 5% CO2 incubator. The number of viable cells was then assessed using sulforhodamine B (SRB) assay. Cells were fixed at 4° C. for 1 hour with the addition of 50 μL 30% trichloroacetic acid (TCA) to make a final concentration of 6% TCA. The plates were washed four times with H2O and allowed to dry for at least 1 hour, whereupon 100 μL of a 4% SRB in 1% acetic acid solution was added to each well and incubated at room temperature for at least 30 minutes. The plates were then washed three times with 1% acetic acid, dried, and treated with 100 μL of 10 mM Tris-Base solution. The plates were then read in a microplate reader at an absorbance of 570 nm. Background was generated on a separate plate with media only.
Method for Determining % Inhibition
First, the signals from the background plate are averaged, then the background was subtracted from the test plates.
wherein X denotes the compound concentration 1, Y denotes the compound concentration 2, XX denotes the % inhibition at compound concentration 1 (X), and YY denotes the % inhibition at compound concentration 2 (Y).

What is called IC50 is the concentration that gives 50% inhibition.

T1 sequence (P43490 whole entry): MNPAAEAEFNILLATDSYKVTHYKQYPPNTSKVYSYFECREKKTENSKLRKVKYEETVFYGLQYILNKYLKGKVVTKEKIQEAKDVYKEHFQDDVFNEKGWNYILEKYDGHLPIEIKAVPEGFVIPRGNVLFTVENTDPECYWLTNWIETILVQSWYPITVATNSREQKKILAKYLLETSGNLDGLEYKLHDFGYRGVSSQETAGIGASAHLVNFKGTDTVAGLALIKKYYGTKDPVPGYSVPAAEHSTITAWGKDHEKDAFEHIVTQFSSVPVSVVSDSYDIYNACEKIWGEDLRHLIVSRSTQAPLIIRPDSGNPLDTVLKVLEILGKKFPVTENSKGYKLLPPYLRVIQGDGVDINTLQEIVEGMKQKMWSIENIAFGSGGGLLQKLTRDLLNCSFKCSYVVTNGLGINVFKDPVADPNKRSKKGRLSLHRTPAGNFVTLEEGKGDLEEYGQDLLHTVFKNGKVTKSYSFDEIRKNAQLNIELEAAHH

For `O=C(NCc1ccc(S(=O)(=O)c2ccc(C(F)(F)F)cc2C(F)(F)F)cc1)c1cnc2nccn2c1`, the IC50 in experiment [1] was found to be 18.8 nM; in experiment [2] it was 96.4 nM.
The corresponding values for `O=C(NCc1ccc(S(=O)(=O)c2cccc(C(F)(F)F)c2Cl)cc1)c1cc2ccncc2o1` are 18.4 nM and 27.9 nM.
The corresponding values for `O=C(NCc1ccc(S(=O)(=O)c2cccc(C(F)(F)F)c2Cl)cc1)c1cnc2nccn2c1` are 2.4 nM and 24.6 nM.
Turning to `O=C(NCc1ccc(S(=O)(=O)c2cccc(C(F)(F)F)c2Cl)cc1)c1cc2cnccc2[nH]1`, the IC50 in experiment [1] was found to be 36.4 nM; in experiment [2], 8.8 nM.
The matching figures for `O=C(NCc1ccc(S(=O)(=O)c2ccc(C(F)(F)F)cc2Cl)cc1)c1cc2cnccc2[nH]1`: 127 nM and 25.4 nM.
Consider `O=C(NCc1ccc(S(=O)(=O)c2ccc(C(F)(F)F)cc2Cl)cc1)c1cnc2nccn2c1`, for which the IC50 was determined as 18.4 nM in experiment [1] and 64.4 nM in experiment [2].
Consider `O=C(NCc1ccc(S(=O)(=O)c2cc(CO)ccc2Cl)cc1)c1cc2cnccc2[nH]1`, for which the results for the IC50 in experiment [1] and in experiment [2] were 8.3 nM and 26.2 nM, respectively.
The matching figures for `O=C(NCc1ccc(S(=O)(=O)c2cc(OC(F)(F)F)ccc2Cl)cc1)c1cnc2nccn2c1`: 8 nM and 12.5 nM.
For the compound `O=C(NCc1ccc(S(=O)(=O)c2cc(C(F)(F)F)ccc2Cl)cc1)c1cnc2nccn2c1`, the IC50 in experiment [1] worked out at 7 nM; in experiment [2], 14.1 nM.
For `O=C(NCc1ccc(S(=O)(=O)c2cc(C(F)(F)F)ccc2Cl)cc1)c1cc2ccncc2o1`, the results for the IC50 in experiment [1] and in experiment [2] were 13.9 nM and 14.1 nM, respectively.
The corresponding values for `CC(C)Oc1cccc(S(=O)(=O)c2ccc(CNC(=O)c3cc4ccncc4s3)cc2)c1F` are 4.7 nM and 6.6 nM.
The matching figures for `CC(C)Oc1cccc(S(=O)(=O)c2ccc(CNC(=O)c3ccc4nccn4c3)cc2)c1F`: 7.8 nM and 4 nM.
The matching figures for `O=C(NCc1ccc(S(=O)(=O)c2cccc(OC(F)(F)F)c2F)cc1)c1cc2ccncc2s1`: 9.8 nM and 13.3 nM.
As to `O=C(NCc1ccc(S(=O)(=O)c2ccc(-n3cccn3)cc2F)cc1)c1cnc2[nH]ncc2c1`, the figures for the IC50 in experiment [1] and in experiment [2] were 38.9 nM and 34.4 nM, respectively.
As for `O=C(NCc1ccc(S(=O)(=O)c2ccc(-n3cccn3)cc2F)cc1)c1cc2ccncc2o1`, the IC50 in experiment [1] came out at 18.4 nM; in experiment [2] it was 8 nM.
For `O=C(NCc1ccc(S(=O)(=O)c2ccc(-n3cccn3)cc2F)cc1)c1cnc2nccn2c1`, the IC50 in experiment [1] came out at 2.2 nM; in experiment [2], 19 nM.
In the case of `O=C(NCc1ccc(S(=O)(=O)c2ccc(C(F)(F)F)cc2F)cc1)c1cc2ccncc2s1`, the results for the IC50 in experiment [1] and in experiment [2] were 20.2 nM and 42.3 nM, respectively.
For `O=C(NCc1ccc(S(=O)(=O)c2ccc(C(F)(F)F)cc2F)cc1)c1ccc2nccn2c1`, the IC50 came to 15.6 nM in experiment [1] and 15.7 nM in experiment [2].
For `COc1c(C(F)(F)F)cccc1S(=O)(=O)c1ccc(CNC(=O)c2ccc3nccn3c2)cc1`, the IC50 was found to be 21.9 nM in experiment [1] and 14.8 nM in experiment [2].
In the case of `COc1c(C(F)(F)F)cccc1S(=O)(=O)c1ccc(CNC(=O)c2cc3ccncc3s2)cc1`, the half-inhibitory concentration (IC50) turned out to be 9.4 nM in experiment [1] and 12.8 nM in experiment [2].
Turning to `COc1cc(-n2cccn2)ccc1S(=O)(=O)c1ccc(CNC(=O)c2cnc3[nH]ncc3c2)cc1`, the IC50 is 24.2 nM in experiment [1] and 9.4 nM in experiment [2].
The corresponding values for `COc1cc(-n2cccn2)ccc1S(=O)(=O)c1ccc(CNC(=O)c2cc3ccncc3o2)cc1` are 6.5 nM and 6 nM.
The corresponding values for `COc1cc(C(F)(F)F)ccc1S(=O)(=O)c1ccc(CNC(=O)c2cnc3[nH]ncc3c2)cc1` are 120 nM and 28.1 nM.
In the case of `COc1cc(C(F)(F)F)ccc1S(=O)(=O)c1ccc(CNC(=O)c2cnc3nccn3c2)cc1`, the half-maximal inhibitory concentration (IC50) in experiment [1] amounted to 4.4 nM; in experiment [2], 22.4 nM.
The corresponding values for `COc1ccc(C(C)C)cc1S(=O)(=O)c1ccc(CNC(=O)c2cc3ccncc3o2)cc1` are 15.4 nM and 12.4 nM.
Take `COc1ccc(C(C)C)cc1S(=O)(=O)c1ccc(CNC(=O)c2ccc3nccn3c2)cc1`: the IC50 in experiment [1] worked out at 35.2 nM; in experiment [2] it was 6.4 nM.
The corresponding values for `COc1ccc(OC(F)(F)F)cc1S(=O)(=O)c1ccc(CNC(=O)c2cnc3[nH]ncc3c2)cc1` are 92.6 nM and 24.6 nM.
Take `COc1ccc(OC(F)(F)F)cc1S(=O)(=O)c1ccc(CNC(=O)c2ccc3nccn3c2)cc1`: the figures for the IC50 in experiment [1] and in experiment [2] were 67.7 nM and 14.4 nM, respectively.
Turning to `COc1ccc(OC(F)(F)F)cc1S(=O)(=O)c1ccc(CNC(=O)c2cc3cnccc3[nH]2)cc1`, the IC50 in experiment [1] is 48.1 nM; in experiment [2] it was 6.6 nM.
The corresponding values for `COc1ccc(OC(F)(F)F)cc1S(=O)(=O)c1ccc(CNC(=O)c2cnc3nccn3c2)cc1` are less than 0.65 nM and 5.8 nM.
In the case of `COc1ccc(C(F)(F)F)cc1S(=O)(=O)c1ccc(CNC(=O)c2cnc3nccn3c2)cc1`, the concentration for half-maximal inhibition (IC50) worked out at 6.8 nM in experiment [1] and 3.6 nM in experiment [2].
The matching figures for `Cc1cc(-n2cccn2)ccc1S(=O)(=O)c1ccc(CNC(=O)c2cc3ccncc3o2)cc1`: 6.2 nM and 6 nM.
Turning to `Cc1cc(-n2cccn2)ccc1S(=O)(=O)c1ccc(CNC(=O)c2cc3ccncc3s2)cc1`, the results for the half-maximal inhibitory concentration (IC50) in experiment [1] and in experiment [2] were 1.5 nM and 3.1 nM, respectively.
Turning to `Cc1cc(-n2cccn2)ccc1S(=O)(=O)c1ccc(CNC(=O)c2cnc3[nH]ncc3c2)cc1`, the IC50 in experiment [1] worked out at 27.1 nM; in experiment [2] it was 23.5 nM.
Take `Cc1cc(C(F)(F)F)ccc1S(=O)(=O)c1ccc(CNC(=O)c2ccc3nccn3c2)cc1`: the half-inhibitory concentration (IC50) in experiment [1] turned out to be 24.7 nM; in experiment [2], 16.6 nM.
The matching figures for `Cc1cc(C(F)(F)F)ccc1S(=O)(=O)c1ccc(CNC(=O)c2cc3ccncc3o2)cc1`: 34.5 nM and 63.1 nM.
The matching figures for `Cc1cc(C(F)(F)F)ccc1S(=O)(=O)c1ccc(CNC(=O)c2cnc3nccn3c2)cc1`: 7.1 nM and 51.1 nM.
The corresponding values for `Cc1cc(C(F)(F)F)ccc1S(=O)(=O)c1ccc(CNC(=O)c2cc3cnccc3[nH]2)cc1` are 30.5 nM and 25.3 nM.
On to `Cc1cc(C(F)(F)F)ccc1S(=O)(=O)c1ccc(CNC(=O)c2cc3ccncc3s2)cc1`, for which the IC50 in experiment [1] was 10.3 nM; in experiment [2], 24.2 nM.
In the case of `O=C(NCc1ccc(S(=O)(=O)c2ccc(C(F)(F)F)cc2C(F)(F)F)cc1)c1cc2ccncc2o1`, the IC50 in experiment [1] turned out to be 53 nM; in experiment [2], 63.7 nM.
As to `O=C(NCc1ccc(S(=O)(=O)c2ccc(C(F)(F)F)cc2C(F)(F)F)cc1)c1cc2cnccc2[nH]1`, the IC50 came to 40.1 nM in experiment [1] and 14 nM in experiment [2].
The corresponding values for `O=C(NCc1ccc(S(=O)(=O)c2ccc(C(F)(F)F)cc2C(F)(F)F)cc1)c1ccc2nccn2c1` are 220 nM and 53.2 nM.
The corresponding values for `O=C(NCc1ccc(S(=O)(=O)c2cccc(-n3cccn3)c2)cc1)c1cc2ccncc2o1` are 7.5 nM and 9.1 nM.
For `O=C(NCc1ccc(S(=O)(=O)c2cccc(-n3cccn3)c2)cc1)c1ccc2nccn2c1`, the half-inhibitory concentration (IC50) was 4.8 nM in experiment [1] and 6.2 nM in experiment [2].
The corresponding values for `O=C(NCc1ccc(S(=O)(=O)c2cccc(OCC(F)(F)F)c2)cc1)c1cnc2nccn2c1` are 5.5 nM and 11.4 nM.
The corresponding values for `O=C(NCc1ccc(S(=O)(=O)c2cccc(OCC(F)(F)F)c2)cc1)c1ccc2nccn2c1` are 15 nM and 5.9 nM.
